Source: ChEMBL document CHEMBL5724806, “Unraveling interindividual differences and functional consequences of gut microbial metabolism of immunosuppressants” (2024)

What was measured:
Assay type in all cases: ADME
[1] = The drug is tested on the gut metagenome community of A-09 with ENA study accession number: PRJEB31790 for biotransformation under anaerobic condition. The drug concentrations were measured over 7 timepoints collected between 0 and 12 hours of incubation by liquid-chromatography-coupled mass spectrometry (LC–MS); design: dose 5 uM, timepoint 0, 0.75, 1.5, 3, 6, 9, 12 hours; conditions: 5 µM
[2] = The drug is tested on Lactobacillus ruminis strain: ATCC25644 for biotransformation under anaerobic condition. The drug concentrations were measured over 6 timepoints collected between 0 and 12 hours of incubation by liquid-chromatography-coupled mass spectrometry (LC–MS); design: dose 5 uM, timepoint 0, 1.5, 3, 6, 9, 12 hours; conditions: ligilactobacillus ruminis, 5 µM
[3] = The drug is tested on the gut metagenome community of A-08 with ENA study accession number: PRJEB31790 for biotransformation under microaerobic condition. The drug concentrations were measured over 7 timepoints collected between 0 and 12 hours of incubation by liquid-chromatography-coupled mass spectrometry (LC–MS); design: dose 5 uM, timepoint 0, 0.75, 1.5, 3, 6, 9, 12 hours; conditions: 5 µM
[4] = The drug is tested on the gut metagenome community of T-04 with ENA study accession number: PRJEB31790 for biotransformation under microaerobic condition. The drug concentrations were measured over 7 timepoints collected between 0 and 12 hours of incubation by liquid-chromatography-coupled mass spectrometry (LC–MS); design: dose 5 uM, timepoint 0, 0.75, 1.5, 3, 6, 9, 12 hours; conditions: 5 µM
[5] = The drug is tested on the gut metagenome community of A-04 with ENA study accession number: PRJEB31790 for biotransformation under microaerobic condition. The drug concentrations were measured over 7 timepoints collected between 0 and 12 hours of incubation by liquid-chromatography-coupled mass spectrometry (LC–MS); design: dose 5 uM, timepoint 0, 0.75, 1.5, 3, 6, 9, 12 hours; conditions: 5 µM
[6] = The drug is tested on Bacteroides xylanisolvens strain: HM 722 for biotransformation under anaerobic condition. The drug concentrations were measured over 6 timepoints collected between 0 and 12 hours of incubation by liquid-chromatography-coupled mass spectrometry (LC–MS); design: dose 5 uM, timepoint 0, 1.5, 3, 6, 9, 12 hours; conditions: 5 µM
[7] = The drug is tested on Eubacterium hallii strain: DSM3353 for biotransformation under anaerobic condition. The drug concentrations were measured over 6 timepoints collected between 0 and 12 hours of incubation by liquid-chromatography-coupled mass spectrometry (LC–MS); design: dose 5 uM, timepoint 0, 1.5, 3, 6, 9, 12 hours; conditions: anaerobutyricum hallii, 5 µM
[8] = The drug is tested on Lactobacillus ruminis strain: ATCC25644 for biotransformation under microaerobic condition. The drug concentrations were measured over 6 timepoints collected between 0 and 12 hours of incubation by liquid-chromatography-coupled mass spectrometry (LC–MS); design: dose 5 uM, timepoint 0, 1.5, 3, 6, 9, 12 hours; conditions: ligilactobacillus ruminis, 5 µM
[9] = The drug is tested on Akkermansia muciniphila strain: DSM22959 for biotransformation under anaerobic condition. The drug concentrations were measured over 6 timepoints collected between 0 and 12 hours of incubation by liquid-chromatography-coupled mass spectrometry (LC–MS); design: dose 5 uM, timepoint 0, 1.5, 3, 6, 9, 12 hours; conditions: 5 µM
[10] = The drug is tested on Actinomyces naeslundi strain: DSM43013 for biotransformation under anaerobic condition. The drug concentrations were measured over 6 timepoints collected between 0 and 12 hours of incubation by liquid-chromatography-coupled mass spectrometry (LC–MS); design: dose 5 uM, timepoint 0, 1.5, 3, 6, 9, 12 hours; conditions: actinomyces naeslundii, 5 µM
[11] = The drug is tested on Streptococcus mitis strain: DSM12643 for biotransformation under anaerobic condition. The drug concentrations were measured over 6 timepoints collected between 0 and 12 hours of incubation by liquid-chromatography-coupled mass spectrometry (LC–MS); design: dose 5 uM, timepoint 0, 1.5, 3, 6, 9, 12 hours; conditions: 5 µM
[12] = The drug is tested on Alloscardovia omnicolens strain: DSM21503 for biotransformation under anaerobic condition. The drug concentrations were measured over 6 timepoints collected between 0 and 12 hours of incubation by liquid-chromatography-coupled mass spectrometry (LC–MS); design: dose 5 uM, timepoint 0, 1.5, 3, 6, 9, 12 hours; conditions: 5 µM
[13] = The drug is tested on the gut metagenome community of A-03 with ENA study accession number: PRJEB31790 for biotransformation under microaerobic condition. The drug concentrations were measured over 7 timepoints collected between 0 and 12 hours of incubation by liquid-chromatography-coupled mass spectrometry (LC–MS); design: dose 5 uM, timepoint 0, 0.75, 1.5, 3, 6, 9, 12 hours; conditions: 5 µM
[14] = The drug is tested on the gut metagenome community of A-03 with ENA study accession number: PRJEB31790 for biotransformation under anaerobic condition. The drug concentrations were measured over 7 timepoints collected between 0 and 12 hours of incubation by liquid-chromatography-coupled mass spectrometry (LC–MS); design: dose 5 uM, timepoint 0, 0.75, 1.5, 3, 6, 9, 12 hours; conditions: 5 µM
[15] = The drug is tested on Bacteroides ovatus strain: ATCC 8483 for biotransformation under anaerobic condition. The drug concentrations were measured over 6 timepoints collected between 0 and 12 hours of incubation by liquid-chromatography-coupled mass spectrometry (LC–MS); design: dose 5 uM, timepoint 0, 1.5, 3, 6, 9, 12 hours; conditions: 5 µM
[16] = The drug is tested on Bacteroides uniformis strain: DSM6597 for biotransformation under anaerobic condition. The drug concentrations were measured over 6 timepoints collected between 0 and 12 hours of incubation by liquid-chromatography-coupled mass spectrometry (LC–MS); design: dose 5 uM, timepoint 0, 1.5, 3, 6, 9, 12 hours; conditions: 5 µM
[17] = The drug is tested on the gut metagenome community of T-05 with ENA study accession number: PRJEB31790 for biotransformation under microaerobic condition. The drug concentrations were measured over 7 timepoints collected between 0 and 12 hours of incubation by liquid-chromatography-coupled mass spectrometry (LC–MS); design: dose 5 uM, timepoint 0, 0.75, 1.5, 3, 6, 9, 12 hours; conditions: 5 µM
[18] = The drug is tested on Faecalibacterium prausnitzii strain: DSM17677 for biotransformation under anaerobic condition. The drug concentrations were measured over 6 timepoints collected between 0 and 12 hours of incubation by liquid-chromatography-coupled mass spectrometry (LC–MS); design: dose 5 uM, timepoint 0, 1.5, 3, 6, 9, 12 hours; conditions: faecalibacterium duncaniae, 5 µM
[19] = The drug is tested on Roseburia intestinalis strain: DSM14610 for biotransformation under anaerobic condition. The drug concentrations were measured over 6 timepoints collected between 0 and 12 hours of incubation by liquid-chromatography-coupled mass spectrometry (LC–MS); design: dose 5 uM, timepoint 0, 1.5, 3, 6, 9, 12 hours; conditions: 5 µM
[20] = The drug is tested on Bacteroides vulgatus strain: DSM1447 for biotransformation under anaerobic condition. The drug concentrations were measured over 6 timepoints collected between 0 and 12 hours of incubation by liquid-chromatography-coupled mass spectrometry (LC–MS); design: dose 5 uM, timepoint 0, 1.5, 3, 6, 9, 12 hours; conditions: phocaeicola vulgatus, 5 µM
[21] = The drug is tested on the gut metagenome community of T-01 with ENA study accession number: PRJEB31790 for biotransformation under anaerobic condition. The drug concentrations were measured over 7 timepoints collected between 0 and 12 hours of incubation by liquid-chromatography-coupled mass spectrometry (LC–MS); design: dose 5 uM, timepoint 0, 0.75, 1.5, 3, 6, 9, 12 hours; conditions: 5 µM
[22] = The drug is tested on the gut metagenome community of P-01 with ENA study accession number: PRJEB31790 for biotransformation under microaerobic condition. The drug concentrations were measured over 7 timepoints collected between 0 and 12 hours of incubation by liquid-chromatography-coupled mass spectrometry (LC–MS); design: dose 5 uM, timepoint 0, 0.75, 1.5, 3, 6, 9, 12 hours; conditions: 5 µM
[23] = The drug is tested on the gut metagenome community of A-01 with ENA study accession number: PRJEB31790 for biotransformation under anaerobic condition. The drug concentrations were measured over 7 timepoints collected between 0 and 12 hours of incubation by liquid-chromatography-coupled mass spectrometry (LC–MS); design: dose 5 uM, timepoint 0, 0.75, 1.5, 3, 6, 9, 12 hours; conditions: 5 µM
[24] = The drug is tested on the gut metagenome community of A-10 with ENA study accession number: PRJEB31790 for biotransformation under anaerobic condition. The drug concentrations were measured over 7 timepoints collected between 0 and 12 hours of incubation by liquid-chromatography-coupled mass spectrometry (LC–MS); design: dose 5 uM, timepoint 0, 0.75, 1.5, 3, 6, 9, 12 hours; conditions: 5 µM

C[C@@H]1C[C@H]2[C@@H]3CCC4=CC(=O)C=C[C@]4(C)[C@@]3(F)[C@@H](O)C[C@]2(C)[C@@]1(O)C(=O)CO [DEXAMETHASONE]
Bacterial Biotransformation [1]: Compound metabolized | Bacterial Biotransformation [2]: Compound NOT metabolized | Bacterial Biotransformation [3]: Compound metabolized | Bacterial Biotransformation [4]: Compound NOT metabolized | Bacterial Biotransformation [5]: Compound NOT metabolized | Bacterial Biotransformation [6]: Compound NOT metabolized | Bacterial Biotransformation [7]: Compound NOT metabolized | Bacterial Biotransformation [8]: Compound NOT metabolized | Bacterial Biotransformation [9]: Compound NOT metabolized | Bacterial Biotransformation [10]: Compound NOT metabolized | Bacterial Biotransformation [11]: Compound NOT metabolized | Bacterial Biotransformation [12]: Compound NOT metabolized | Bacterial Biotransformation [13]: Compound NOT metabolized | Bacterial Biotransformation [14]: Compound metabolized | Bacterial Biotransformation [15]: Compound NOT metabolized | Bacterial Biotransformation [16]: Compound NOT metabolized | Bacterial Biotransformation [17]: Compound NOT metabolized | Bacterial Biotransformation [18]: Compound NOT metabolized | Bacterial Biotransformation [19]: Compound NOT metabolized | Bacterial Biotransformation [20]: Compound NOT metabolized | Bacterial Biotransformation [21]: Compound NOT metabolized | Bacterial Biotransformation [22]: Compound NOT metabolized | Bacterial Biotransformation [23]: Compound NOT metabolized | Bacterial Biotransformation [24]: Compound NOT metabolized

COc1ccc([C@@H]2Sc3ccccc3N(CCN(C)C)C(=O)[C@@H]2OC(C)=O)cc1 [DILTIAZEM]
Bacterial Biotransformation [1]: Compound metabolized | Bacterial Biotransformation [2]: Compound NOT metabolized | Bacterial Biotransformation [3]: Compound metabolized | Bacterial Biotransformation [4]: Compound NOT metabolized | Bacterial Biotransformation [5]: Compound metabolized | Bacterial Biotransformation [6]: Compound metabolized | Bacterial Biotransformation [7]: Compound NOT metabolized | Bacterial Biotransformation [8]: Compound NOT metabolized | Bacterial Biotransformation [9]: Compound NOT metabolized | Bacterial Biotransformation [10]: Compound NOT metabolized | Bacterial Biotransformation [11]: Compound NOT metabolized | Bacterial Biotransformation [12]: Compound NOT metabolized | Bacterial Biotransformation [13]: Compound metabolized | Bacterial Biotransformation [14]: Compound metabolized | Bacterial Biotransformation [15]: Compound metabolized | Bacterial Biotransformation [16]: Compound metabolized | Bacterial Biotransformation [17]: Compound metabolized | Bacterial Biotransformation [18]: Compound NOT metabolized | Bacterial Biotransformation [19]: Compound NOT metabolized | Bacterial Biotransformation [20]: Compound NOT metabolized | Bacterial Biotransformation [21]: Compound NOT metabolized | Bacterial Biotransformation [22]: Compound metabolized | Bacterial Biotransformation [23]: Compound metabolized | Bacterial Biotransformation [24]: Compound NOT metabolized

CO[C@H]1C[C@@H]2CC[C@@H](C)[C@@](O)(O2)C(=O)C(=O)N2CCCC[C@H]2C(=O)O[C@H]([C@H](C)C[C@@H]2CC[C@@H](OCCO)[C@H](OC)C2)CC(=O)[C@H](C)/C=C(\C)[C@@H](O)[C@@H](OC)C(=O)[C@H](C)C[C@H](C)/C=C/C=C/C=C/1C [EVEROLIMUS]
Bacterial Biotransformation [1]: Compound metabolized | Bacterial Biotransformation [2]: Compound NOT metabolized | Bacterial Biotransformation [3]: Compound metabolized | Bacterial Biotransformation [4]: Compound NOT metabolized | Bacterial Biotransformation [5]: Compound metabolized | Bacterial Biotransformation [6]: Compound NOT metabolized | Bacterial Biotransformation [7]: Compound metabolized | Bacterial Biotransformation [8]: Compound NOT metabolized | Bacterial Biotransformation [9]: Compound NOT metabolized | Bacterial Biotransformation [10]: Compound NOT metabolized | Bacterial Biotransformation [11]: Compound NOT metabolized | Bacterial Biotransformation [12]: Compound NOT metabolized | Bacterial Biotransformation [13]: Compound metabolized | Bacterial Biotransformation [14]: Compound metabolized | Bacterial Biotransformation [15]: Compound NOT metabolized | Bacterial Biotransformation [16]: Compound NOT metabolized | Bacterial Biotransformation [17]: Compound NOT metabolized | Bacterial Biotransformation [18]: Compound NOT metabolized | Bacterial Biotransformation [19]: Compound metabolized | Bacterial Biotransformation [20]: Compound NOT metabolized | Bacterial Biotransformation [21]: Compound NOT metabolized | Bacterial Biotransformation [22]: Compound NOT metabolized | Bacterial Biotransformation [23]: Compound metabolized | Bacterial Biotransformation [24]: Compound metabolized
